Calls of active or inactive are those of the source.
Legend:
[1] = molecular target: NACHT, LRR and PYD domains-containing protein 3 (Mus musculus) (UniProt Q8R4B8); test: Inhibition of NLRP3 inflammasome activation in C57 mouse BMDM cells assessed as reduction in caspase-1 maturation at 5 uM preincubated with LPS for 3 hrs followed by compound addition for 30 mins prior to MSU addition and measured after 4 hrs by Western blot analysis; assay type: cell-based; settings: time 4.5 hrs
[2] = molecular target: NACHT, LRR and PYD domains-containing protein 3 (Mus musculus) (UniProt Q8R4B8); test: Inhibition of NLRP3 inflammasome activation in C57 mouse BMDM cells assessed as reduction in IL-1beta secretion at 5 uM preincubated with LPS for 3 hrs followed by compound addition for 30 mins prior to MSU addition and measured after 4 hrs by Western blot analysis; assay type: cell-based; settings: time 4.5 hrs
THP-1 = test: Cytotoxicity against PMA-differentiated human THP-1 cells assessed as reduction in cell viability upto 50 uM incubated for 24 hrs by CCK8 assay; assay type: toxicity, cell-based; settings: thp-1, 24 h
Mus musculus [3] = test: Anti-inflammatory activity in MSU-induced C57 mouse model of acute peritonitis assessed as reduction in IL-1beta expression preadministered intraperitoneally with compound for 3 days followed by MSU injection and measured after 6 hrs by ELISA; assay type: functional, organism-based; settings: dose 5-30 mg/kg, route ip, time 78.0 hrs
[4] = molecular target: NACHT, LRR and PYD domains-containing protein 3 (Mus musculus) (UniProt Q8R4B8); test: (§1) Inhibition of NLRP3 inflammasome activation in LPS/Nigericin induced C57 mouse BMDM cells assessed as reduction in pro-caspase-1(p45) expression in cell supernatant at 2.5 to 10 uM preincubated with LPS for 3 hrs followed by compound addition for 30 mins prior to nigericin addition and measured after 30 mins by Western blot analysis; assay type: cell-based; settings: dose 2.5-10 µM, time 1.0 hrs
[5] = molecular target: NACHT, LRR and PYD domains-containing protein 3 (Mus musculus) (UniProt Q8R4B8); test: Inhibition of NLRP3 inflammasome activation in C57 mouse BMDM cells assessed as reduction in IL-1beta secretion at 5 uM preincubated with LPS for 3 hrs followed by compound addition for 30 mins prior to nigericin addition and measured after 30 mins by Western blot analysis; assay type: cell-based; settings: time 1.0 hrs
[6] = molecular target: NACHT, LRR and PYD domains-containing protein 3 (Mus musculus) (UniProt Q8R4B8); test: Inhibition of NLRP3 inflammasome assembly in C57 mouse BMDM cells assessed as effect on ASC binding at 2.5 to 10 uM preincubated with LPS for 3 hrs followed by compound addition for 30 mins prior to nigericin addition and measured after 30 mins by immunoprecipitation; assay type: cell-based; settings: dose 2.5-10 µM, time 1.0 hrs
[7] = molecular target: NLR family CARD domain-containing protein 4 (Mus musculus) (UniProt Q3UP24); test: Inhibition of NLRC4 inflammasome activation in C57 mouse BMDM cells assessed as reduction in caspase-1 maturation at 5 uM preincubated with LPS for 3 hrs followed by Salmonella typhimurium stimulation for 2 hrs by Western blot analysis; assay type: cell-based
NLR family CARD domain-containing protein 4 (Mus musculus), sequence (Q3UP24 whole entry, the tested form may be a part): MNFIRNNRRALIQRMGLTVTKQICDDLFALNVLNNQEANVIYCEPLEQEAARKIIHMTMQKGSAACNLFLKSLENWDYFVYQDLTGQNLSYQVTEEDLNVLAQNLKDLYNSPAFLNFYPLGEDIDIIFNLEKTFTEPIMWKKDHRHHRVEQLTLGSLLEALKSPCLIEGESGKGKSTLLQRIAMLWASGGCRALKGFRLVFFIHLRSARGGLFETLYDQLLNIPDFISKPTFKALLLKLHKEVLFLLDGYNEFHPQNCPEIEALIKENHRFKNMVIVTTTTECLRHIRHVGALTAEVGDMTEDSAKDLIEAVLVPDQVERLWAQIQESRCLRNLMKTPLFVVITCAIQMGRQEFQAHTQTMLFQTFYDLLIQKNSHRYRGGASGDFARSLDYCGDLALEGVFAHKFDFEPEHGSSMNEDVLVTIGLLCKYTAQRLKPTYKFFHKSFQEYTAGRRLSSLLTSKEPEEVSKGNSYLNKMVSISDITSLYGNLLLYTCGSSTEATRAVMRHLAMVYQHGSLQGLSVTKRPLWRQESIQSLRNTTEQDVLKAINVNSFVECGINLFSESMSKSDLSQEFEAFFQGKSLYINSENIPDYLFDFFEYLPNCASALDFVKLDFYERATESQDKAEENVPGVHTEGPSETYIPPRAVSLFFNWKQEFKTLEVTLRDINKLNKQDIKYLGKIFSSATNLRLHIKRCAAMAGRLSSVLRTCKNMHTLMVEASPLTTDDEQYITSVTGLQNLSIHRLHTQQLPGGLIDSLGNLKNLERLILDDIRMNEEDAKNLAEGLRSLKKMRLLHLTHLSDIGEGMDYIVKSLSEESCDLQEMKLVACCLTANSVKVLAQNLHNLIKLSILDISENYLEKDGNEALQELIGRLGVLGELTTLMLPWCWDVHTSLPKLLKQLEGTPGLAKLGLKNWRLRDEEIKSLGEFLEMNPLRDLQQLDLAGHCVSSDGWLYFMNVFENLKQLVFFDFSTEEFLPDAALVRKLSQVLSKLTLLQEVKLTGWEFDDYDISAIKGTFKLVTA

[8] = molecular target: NACHT, LRR and PYD domains-containing protein 3 (Mus musculus) (UniProt Q8R4B8); test: as §1, with “IL-1beta maturation” for “pro-caspase-1(p45) expression”; assay type: cell-based; settings: dose 2.5-10 µM, time 1.0 hrs
[9] = molecular target: T1, NACHT, LRR and PYD domains-containing protein 3 (Homo sapiens, UniProt Q96P20); test: Inhibition of NLRP3 inflammasome activation in PMA-differentiated human THP-1 cells assessed as reduction in IL-1beta secretion pre-stimulated with PMA for 24 hrs followed by compound addition and measured after 30 mins by ELISA; assay type: cell-based
T1 sequence (Q96P20 whole entry, the tested form may be a part): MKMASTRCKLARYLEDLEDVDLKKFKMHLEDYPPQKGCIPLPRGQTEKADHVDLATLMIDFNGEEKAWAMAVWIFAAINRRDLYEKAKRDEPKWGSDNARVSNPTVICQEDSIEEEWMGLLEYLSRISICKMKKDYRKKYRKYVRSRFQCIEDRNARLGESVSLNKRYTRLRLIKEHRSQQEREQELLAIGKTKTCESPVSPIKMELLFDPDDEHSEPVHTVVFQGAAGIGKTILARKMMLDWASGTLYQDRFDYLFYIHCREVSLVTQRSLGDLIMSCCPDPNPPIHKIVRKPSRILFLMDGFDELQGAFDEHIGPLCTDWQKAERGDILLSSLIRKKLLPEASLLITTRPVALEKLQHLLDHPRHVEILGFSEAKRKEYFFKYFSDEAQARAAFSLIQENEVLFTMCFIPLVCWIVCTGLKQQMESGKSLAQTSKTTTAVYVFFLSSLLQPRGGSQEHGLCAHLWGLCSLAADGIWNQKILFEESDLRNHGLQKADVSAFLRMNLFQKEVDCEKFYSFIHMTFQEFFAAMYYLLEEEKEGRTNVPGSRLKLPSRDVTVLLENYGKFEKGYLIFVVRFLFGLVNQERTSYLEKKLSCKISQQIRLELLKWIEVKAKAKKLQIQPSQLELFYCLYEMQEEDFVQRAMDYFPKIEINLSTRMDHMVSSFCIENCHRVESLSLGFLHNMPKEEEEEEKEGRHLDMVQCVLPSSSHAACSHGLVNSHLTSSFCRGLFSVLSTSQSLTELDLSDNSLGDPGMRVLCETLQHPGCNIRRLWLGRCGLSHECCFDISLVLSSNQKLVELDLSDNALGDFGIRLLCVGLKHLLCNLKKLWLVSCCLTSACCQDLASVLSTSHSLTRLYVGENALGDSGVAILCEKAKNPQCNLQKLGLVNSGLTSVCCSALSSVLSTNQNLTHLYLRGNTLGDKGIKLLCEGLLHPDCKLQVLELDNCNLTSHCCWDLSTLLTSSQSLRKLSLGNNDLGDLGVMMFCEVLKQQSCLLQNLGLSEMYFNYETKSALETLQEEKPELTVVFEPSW

Mus musculus [10] = test: Analgesic activity in MSU-induced C57 mouse model of gouty arthritis assessed as increase in pain threshold at 10 to 30 mg/kg, ip preadministered with compound for 3 days followed by MSU injection and measured after 24 hrs by von frey test; assay type: functional, organism-based; settings: dose 10-30 mg/kg, time 4.0 day
[11] = molecular target: NACHT, LRR and PYD domains-containing protein 3 (Mus musculus) (UniProt Q8R4B8); test: as §1, with “NEK7” for “pro-caspase-1(p45)”; assay type: cell-based; settings: dose 2.5-10 µM, time 1.0 hrs
[12] = molecular target: NACHT, LRR and PYD domains-containing protein 3 (Mus musculus) (UniProt Q8R4B8); test: as §1, with “ASC” for “pro-caspase-1(p45)”; assay type: cell-based; settings: dose 2.5-10 µM, time 1.0 hrs
[13] = molecular target: NACHT, LRR and PYD domains-containing protein 3 (Mus musculus) (UniProt Q8R4B8); test: Inhibition of NLRP3 inflammasome activation in LPS/Nigericin induced C57 mouse BMDM cells assessed as reduction in […] preincubated with LPS for 3 hrs followed by compound addition for 30 mins prior to nigericin addition and measured after 30 mins by PI/Hoechst 33342 staining based analysis; assay type: cell-based; settings: time 1.0 hrs
[14] = molecular target: T1, NACHT, LRR and PYD domains-containing protein 3; test: Inhibition of NLRP3 inflammasome activation in […]-differentiated human THP-1 cells assessed as effect on ROS production at 10 uM preincubated with LPS for 3 hrs followed by compound addition for 30 mins prior to nigericin addition and measured after 30 mins by MitoSOX dye/Hoechst 33342 staining based confocal microscopic analysis; assay type: cell-based; settings: time 1.0 hrs
Mus musculus [15] = test: Anti-inflammatory activity in MSU-induced C57 mouse model of gouty arthritis assessed as reduction in foot swelling at 10 to 30 mg/kg, ip preadministered with compound for 3 days followed by MSU injection and measured after 24 hrs; assay type: functional, organism-based; settings: dose 10-30 mg/kg, time 4.0 day
BMDM [16] = test: Effect on TNF-alpha secretion in LPS/Nigericin induced C57 mouse BMDM cells at 1.25 to 10 uM preincubated with LPS for 3 hrs followed by compound addition for 30 mins prior to nigericin addition and measured after 30 mins by ELISA; assay type: functional, cell-based; settings: dose 1.25-10 µM, time 1.0 hrs
[17] = Stability in human liver microsomes assessed as intrinsic clearance at 1.5 uM measured upto 45 mins in presence of NADPH by LC-MS/MS analysis; assay type: ADME, Microsome; settings: read-out: CLH
[18] = molecular target: NACHT, LRR and PYD domains-containing protein 3 (Mus musculus) (UniProt Q8R4B8); test: as §1, with “active caspase-1” for “pro-caspase-1(p45) expression”; assay type: cell-based; settings: dose 2.5-10 µM, time 1.0 hrs
[19] = molecular target: NACHT, LRR and PYD domains-containing protein 3 (Mus musculus) (UniProt Q8R4B8); test: Inhibition of NLRP3 inflammasome activation in C57 mouse BMDM cells assessed as reduction in IL-1beta secretion at 5 uM preincubated with LPS for 3 hrs followed by compound addition for 30 mins prior to ATP addition and measured after 30 mins by Western blot analysis; assay type: cell-based; settings: time 1.0 hrs
BMDM [20] = test: Cytotoxicity against C57 mouse BMDM cells assessed as reduction in cell viability upto 50 uM incubated for 24 hrs by CCK8 assay; assay type: toxicity, cell-based

NACHT, LRR and PYD domains-containing protein 3 (Mus musculus), sequence (Q8R4B8 whole entry, the tested form may be a part): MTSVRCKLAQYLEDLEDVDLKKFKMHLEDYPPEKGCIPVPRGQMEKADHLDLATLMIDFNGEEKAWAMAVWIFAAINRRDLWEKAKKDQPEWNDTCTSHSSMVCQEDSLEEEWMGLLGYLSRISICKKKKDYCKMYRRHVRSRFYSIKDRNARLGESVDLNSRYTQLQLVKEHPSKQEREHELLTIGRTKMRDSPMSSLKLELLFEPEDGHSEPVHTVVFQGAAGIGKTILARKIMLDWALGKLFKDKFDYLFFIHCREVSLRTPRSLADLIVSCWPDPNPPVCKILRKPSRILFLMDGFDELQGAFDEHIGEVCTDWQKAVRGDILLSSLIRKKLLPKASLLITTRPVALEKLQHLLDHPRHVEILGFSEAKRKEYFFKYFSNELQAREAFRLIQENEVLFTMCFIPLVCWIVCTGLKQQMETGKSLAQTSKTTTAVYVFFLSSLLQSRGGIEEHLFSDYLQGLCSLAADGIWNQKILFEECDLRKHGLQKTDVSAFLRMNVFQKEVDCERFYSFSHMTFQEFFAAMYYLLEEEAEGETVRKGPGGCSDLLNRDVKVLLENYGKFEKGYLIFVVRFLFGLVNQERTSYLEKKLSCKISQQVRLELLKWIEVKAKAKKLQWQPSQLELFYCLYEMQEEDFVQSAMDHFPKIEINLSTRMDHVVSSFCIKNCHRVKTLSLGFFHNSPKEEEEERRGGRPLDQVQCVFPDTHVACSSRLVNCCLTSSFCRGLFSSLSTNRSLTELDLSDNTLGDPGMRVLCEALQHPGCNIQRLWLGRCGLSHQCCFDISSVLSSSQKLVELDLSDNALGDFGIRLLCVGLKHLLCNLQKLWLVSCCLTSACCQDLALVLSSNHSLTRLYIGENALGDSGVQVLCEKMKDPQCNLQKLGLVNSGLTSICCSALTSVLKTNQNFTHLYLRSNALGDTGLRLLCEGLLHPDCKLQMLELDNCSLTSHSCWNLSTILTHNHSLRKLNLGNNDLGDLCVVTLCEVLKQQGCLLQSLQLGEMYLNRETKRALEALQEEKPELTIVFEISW

COc1ccc(N2C(=O)/C(=C\c3ccccc3C(F)(F)F)SC2=S)cc1
inhibition [1]: Active | inhibition [2]: Active | Activity (THP-1): Non-Toxic | Activity (Mus musculus [3]): Dose-Dependent Effect | inhibition [4]: inactive | inhibition [5]: Active | inhibition [6]: Active | inhibition [7]: inactive | inhibition [8]: Active | IC50 [9]: 2.3 µM | Activity (Mus musculus [10]): Active | inhibition [11]: inactive | inhibition [12]: inactive | inhibition [13]: Active | inhibition [14]: inactive | Activity (Mus musculus [15]): Active | Activity (BMDM [16]): inactive | CLint scaled at 1.5 µM [17]: 0.672 L/h/kg | inhibition [18]: Active | inhibition [19]: Active | Activity (BMDM [20]): Non-Toxic
